Reference: patent US20200061007A1, “CANCER STEM CELL PROLIFERATION INHIBITOR” (NATIONAL INSTITUTE OF ADVANCED INDUSTRIAL SCIENCE AND …, priority 2014, published 2020)

What was measured:
[1] = system: Human Leukemia Cell Line Kasumi-1; test: Growth inhibition of Kasumi-1, isobologram; format: cell-based; details: Kasumi-1, RPMI1640 with 20% FBS
Experimental: A human leukemia cell line Kasummi-1, containing cells positive for cancer stem cell markers, was cultured in RPMI1640 medium supplemented with 20% FBS, and the growth inhibitory action by the combination of Am80 and 5-AZ was studied using Isobologram. […] These concentrations were taken as 1.0, and the points corresponding to 1.0 in the two axes were connected to each other via a straight line. In cases where the ratio observed for the combination effect is on the line, the effect is additive, and, in cases where the ratio is below the line, the effect is synergistic.

[2] = system: human breast cancer cell line MCF-7; test: Growth inhibition of MCF-7 in vitro; format: cell-based; details: MCF-7, 96 hours of exposure, RPMI1640 with 2% FBS
Experimental: (§1) A human breast cancer cell line MCF-7, containing cells positive for cancer stem cell markers, was cultured in RPMI1640 medium supplemented with 2% FBS, and the growth inhibitory action by the combination of Am80 and 5-AZ was studied. The IC50 values of the agents determined by 96 hours of the exposure were 1 μM and 20 μM, respectively. Thus, in order to study the growth inhibitory action, Am80 was used within the concentration range of 0.125 μM to 1 μM with a common ratio of 2, and 5-AZ was used within the concentration range of 2.5 μM to 20 μM with a common ratio of 2. In cases of use of these agents in combination, the growth inhibitory action was studied using these concentrations.

[3] = system: human prostate cancer cell line LNCaP; test: Growth inhibition of LNCaP in vitro; format: cell-based; details: 96 hours of exposure, RPMI1640 with 10% FBS
Experimental: as §1, with “prostate” for “breast”, “LNCaP,” for “MCF-7,”, “10%” for “2%”, “The IC50 values of the agents determined by 96 hours of the exposure were 1 μM and 20 μM, respectively.” left out, “1.56” for “2.5”, “12.5” for “20”

[4] = system: human pancreatic cancer cells MIA-Paca2; test: Tumor volume, MIA-Paca2/nude mice; format: in vivo
Experimental: A tumor piece of human pancreatic cancer cells MIA-Paca2 containing cells positive for cancer stem cell markers was subcutaneously transplanted to the dorsal part of each of 6-week-old female BALB/cAJc1-nu nude mice (4 mice/group, 5 mice only for the control group) using a trocar needle. At the time when the tumor volume reached 100 to 200 mm^3, the administration was started. Am80 was orally administered once a day at a dose of 2 mg/kg for 21 continuous days, and DXL was intravenously administered at a dose of 5 mg/kg from Day 1, 3 times at intervals of 4 days. In the combination group, the agents were administered at the same doses as, and by the same administration methods as, those in the cases of administration of each single agent. Measurement of the tumor diameter was carried out until the next day of the completion of the administration (Day 22). Based on the measured values of the longitudinal diameter and the transverse diameter, the tumor volume (mm^3) was determined according to the following formula: longitudinal diameter×transverse diameter^2/2. In the control group, physiological saline was intraperitoneally administered from Day 1, 3 times at intervals of 4 days.

[5] = system: human breast cancer cell line MCF-7; test: Tumor volume, MCF-7/nude mice; format: in vivo
Experimental: (§2) A tumor piece of a human breast cancer cell line MCF-7 containing cells positive for cancer stem cell markers was subcutaneously transplanted to the dorsal part of each of 6-week-old female BALB/cAJc1-nu nude mice (5 mice/group) using a trocar needle. At the time when the tumor volume reached 100 to 200 mm^3, the administration was started. Am80 was orally administered once a day at a dose of 1 mg/kg for 21 continuous days, and DXL was intravenously administered at a dose of 3.5 mg/kg from Day 1, 3 times at intervals of 4 days. In the combination group, the agents were administered at the same doses as, and by the same administration methods as, those in the cases of administration of each single agent. Measurement of the tumor diameter was carried out until the next day of the completion of the administration (Day 22). The longitudinal diameter and the transverse diameter of the tumor were measured using a caliper, and the tumor volume (mm^3) was determined according to the following formula: longitudinal diameter×transverse diameter^2/2. In the control group, physiological saline was intraperitoneally administered from Day 1, 3 times at intervals of 4 days.

[6] = system: human prostate cancer cell line LNCaP; test: Tumor volume, LNCaP/nude mice; format: in vivo
Experimental: as §2, with “prostate” for “breast”, “LNCaP” for “MCF-7”, “(4” for “(5”, “5” for “3.5”

Nc1ncn([C@@H]2O[C@H](CO)[C@@H](O)[C@H]2O)c(=O)n1 [5-AZ, Azacytidine]
IC50 [1]: 8.4 µM
IC50 [2]: 20 µM
IC50 [3]: 25 µM

CC(=O)O[C@@]12CO[C@@H]1C[C@H](O)[C@@]1(C)C(=O)[C@H](O)C3=C(C)[C@@H](OC(=O)[C@H](O)[C@@H](NC(=O)OC(C)(C)C)c4ccccc4)C[C@@](O)([C@@H](OC(=O)c4ccccc4)[C@H]21)C3(C)C [DXL, Docetaxel]
tumor volume Day 1 ([4]; Am80 2 mg/kg oral daily 21 days, DXL 5 mg/kg i.v. 3 times at intervals of 4 days, Day 1): 136.7 mm^3
tumor volume Day 5 ([4]; Am80 2 mg/kg oral daily, DXL 5 mg/kg i.v., Day 5): 151.3 mm^3
tumor volume Day 9 ([4]; Am80 2 mg/kg oral daily, DXL 5 mg/kg i.v., Day 9): 135.7 mm^3
tumor volume Day 13 ([4]; Am80 2 mg/kg oral daily, DXL 5 mg/kg i.v., Day 13): 93.7 mm^3
tumor volume Day 17 ([4]; Am80 2 mg/kg oral daily, DXL 5 mg/kg i.v., Day 17): 76.3 mm^3
tumor volume Day 22 ([4]; Am80 2 mg/kg oral daily, DXL 5 mg/kg i.v., Day 22): 77.3 mm^3
tumor volume Day 1 ([5]; Am80 1 mg/kg oral daily 21 days, DXL 3.5 mg/kg i.v. 3 times at intervals of 4 days, Day 1): 143.5 mm^3
tumor volume Day 5 ([5]; Am80 1 mg/kg oral daily, DXL 3.5 mg/kg i.v., Day 5): 121.5 mm^3
tumor volume Day 9 ([5]; Am80 1 mg/kg oral daily, DXL 3.5 mg/kg i.v., Day 9): 110.0 mm^3
tumor volume Day 13 ([5]; Am80 1 mg/kg oral daily, DXL 3.5 mg/kg i.v., Day 13): 83.3 mm^3
tumor volume Day 17 ([5]; Am80 1 mg/kg oral daily, DXL 3.5 mg/kg i.v., Day 17): 66.5 mm^3
tumor volume Day 22 ([5]; Am80 1 mg/kg oral daily, DXL 3.5 mg/kg i.v., Day 22): 71.3 mm^3
tumor volume Day 1 ([6]; Am80 1 mg/kg oral daily 21 days, DXL 5 mg/kg i.v. 3 times at intervals of 4 days, Day 1): 126.7 mm^3
tumor volume Day 5 ([6]; Am80 1 mg/kg oral daily, DXL 5 mg/kg i.v., Day 5): 111.3 mm^3
tumor volume Day 9 ([6]; Am80 1 mg/kg oral daily, DXL 5 mg/kg i.v., Day 9): 90.7 mm^3
tumor volume Day 13 ([6]; Am80 1 mg/kg oral daily, DXL 5 mg/kg i.v., Day 13): 73.7 mm^3
tumor volume Day 17 ([6]; Am80 1 mg/kg oral daily, DXL 5 mg/kg i.v., Day 17): 72.5 mm^3
tumor volume Day 22 ([6]; Am80 1 mg/kg oral daily, DXL 5 mg/kg i.v., Day 22): 70.2 mm^3
